From the Biogen ADME set (Fang et al. 2023)
Converted amounts (≈) assume the structure as drawn.

Conditions: for aqueous solubility: pH 6.8

| SMILES | MDR1-MDCK efflux ratio | intrinsic clearance, human liver microsomes | intrinsic clearance, rat liver microsomes | aqueous solubility | fraction unbound, human plasma | fraction unbound, rat plasma |
| --- | --- | --- | --- | --- | --- | --- |
| O=C(NCCN1CCC(c2ccccc2)CC1)c1ccc2ncsc2c1 | 1.31 | 15.2 mL/min/kg | 108 mL/min/kg | 44 µg/mL (≈ 120 µM) |  |  |
| O=C(Nc1ccccn1)c1ccc2c(c1)C(=O)N(C1CCCCC1)C2=O | 0.393 | 11.8 mL/min/kg | 791 mL/min/kg |  |  |  |
| COc1ccc(-c2ccc(Cn3nc(C)cc3C)cn2)cc1 | 0.479 | 23.7 mL/min/kg | 255 mL/min/kg |  |  |  |
| COc1cc(-c2ccc(Cn3nc(C)cc3C)cn2)cc(OC)c1OC | 1.65 | 46.1 mL/min/kg | 345 mL/min/kg |  |  |  |
| CC(C)[C@H](CO)Nc1nc(Nc2cc(N)cc(Cl)c2)c2ncn(C(C)C)c2n1 | 16.9 |  |  |  | 0.00867 | 0.00796 |
| O=C(Nc1cc[nH]n1)c1ccc2c(c1)[nH]c(=O)n2C1CCCC1 |  | 18.1 mL/min/kg | 53.5 mL/min/kg |  |  |  |
| CN(C)c1ccc(-c2ccc(C(=O)NCCN3CCCC3=O)cc2)nn1 | 55.2 | ≤ 4.74 mL/min/kg | 75 mL/min/kg |  |  |  |
| COCC(=O)Nc1nc(C)c(C)s1 | 0.659 | 18.9 mL/min/kg | 71.3 mL/min/kg | 25.6 µg/mL (≈ 128 µM) |  |  |
| COc1ccncc1NCc1cscn1 |  | ≤ 4.74 mL/min/kg | 25.4 mL/min/kg |  |  |  |
| CC1(C)CC(CC(=O)NCCn2ccnn2)CC(C)(C)N1 | 0.186 | ≤ 4.74 mL/min/kg | ≤ 10.7 mL/min/kg |  |  |  |
| CC1(C)CC[C@]2(NC(=O)C(C)(F)F)CC[C@]3(C)[C@H](C(=O)C=C4[C@@]5(C)C=C(C#N)C(=O)C(C)(C)[C@@H]5CC[C@]43C)[C@@H]2C1 | 6.31 | 76.7 mL/min/kg | 145 mL/min/kg |  |  | 0.0088 |
| CC1(C)CC(=O)C2=C(C1)NC(=O)CC2c1ccc(Br)cc1 (stereo unspecified) | 3.38 | 59.6 mL/min/kg | 247 mL/min/kg |  | 0.144 | 0.088 |
| CN(C)C(C)(C)CNc1ncnc2ccccc12 | 2.86 | ≤ 4.74 mL/min/kg | 293 mL/min/kg | 39.1 µg/mL (≈ 160 µM) |  |  |
| Cc1cccnc1NC(=O)c1csc(-c2ccccc2)n1 |  | 54 mL/min/kg | 462 mL/min/kg | 43.2 µg/mL (≈ 146 µM) |  |  |
| CNc1cc(CC2CCNCC2)ncn1 |  |  |  | 30.6 µg/mL (≈ 148 µM) |  |  |
| Cc1noc(C)c1COc1ccc2ncccc2c1 |  | 86.8 mL/min/kg | 337 mL/min/kg |  |  |  |
| Cc1cc2nc(Sc3nnc(C)n3C)c3ccccc3n2n1 | 11.3 | ≤ 4.74 mL/min/kg | 35 mL/min/kg |  |  |  |
| COc1ccc2cc(-c3[nH]c(-c4ccc(S(C)=O)cc4)nc3-c3ccncc3)ccc2c1 (stereo unspecified) | 34.8 | 4.96 mL/min/kg | 121 mL/min/kg | 3.4 µg/mL (≈ 7.74 µM) |  |  |
| CCc1ncnc(N(C)Cc2ccc(N)nc2)c1F | 0.635 | ≤ 4.74 mL/min/kg | 44.2 mL/min/kg | 34.9 µg/mL (≈ 134 µM) |  |  |
| COc1nc2c(cc1CNC(=O)N1CCC[C@@H]1CO)C(=O)N(C1CCCC1)C2 | 78.1 | 8.55 mL/min/kg | 69.1 mL/min/kg |  |  |  |
| N#Cc1c(N)nc(SCC(N)=O)c(C#N)c1-c1ccc(OCC2CC2)cc1 | 42.5 |  |  | 0.52 µg/mL (≈ 1.37 µM) |  |  |
| Cc1cccn(Cc2cccnc2)c1=O | 0.609 | ≤ 4.74 mL/min/kg | ≤ 10.7 mL/min/kg | 47 µg/mL (≈ 235 µM) |  |  |
| CCNC(=O)c1noc(-c2cc(C(C)C)c(O)cc2O)c1-c1ccc(CN2CCOCC2)cc1 |  | 38.8 mL/min/kg | 351 mL/min/kg |  |  |  |
